The structures appear in SMILES notation. Calls of active or inactive are those of the source. No cut-off for these calls is given here.

Series [1] concerns 2B4. In words: Induction of NFAT-GFP signal in mouse 2B4 reporter cells expressing mMincle + FcRgamma at 0.1 to 1 nmol incubated for 18 hrs by flow cytometry analysis. The format is functional, cell-based. The conditions noted are these: dose 0.1-1 nmol.
The test system of series [2] is HEK293. Put plainly: Induction of IL-8 production in HEK293 cells expressing mouse NOD2 at 5 to 50 uM incubated for 20 hrs by ELISA. The format is functional, cell-based. The conditions noted are these: Homo sapiens, dose 5-50 µM.
The subject of series [3] is BMDM. In words: Induction of IL-1beta production in C57BL/6 mouse BMDM at 1 nmol incubated for 48 hrs by ELISA. The format is functional, cell-based.
Series [4] deals with BMDM. In words: Induction of IL-6 production in C57BL/6 mouse BMDM at 1 nmol incubated for 48 hrs by ELISA. It is filed as functional, cell-based.
In series [5] the test system is BMDM. In words: Induction of IL-23 production in C57BL/6 mouse BMDM at 1 nmol incubated for 48 hrs by ELISA. The format is functional, cell-based.
Series [6] concerns Splenocyte. In words: Improvement in memory response in ovalbumin immunized C57BL/6 mouse splenocytes assessed as increase in IFNgamma level incubated for 72 hrs by ELISA. The format is functional, cell-based.
For series [7], the species on record is Mus musculus. In words: Adjuvanticity in ovalbumin immunized C57BL/6 mouse assessed as increase in anti-OVA IgG titers at 40 nmol boosted with OVA at 1 week and measured after week 3, 4, 5 by ELISA. It is filed as functional, organism-based. The conditions noted are these: time 5.0 weeks.
A short description of series [8]: Toxicity in ovalbumin immunized C57BL/6 mouse assessed as body weight loss at 40 nmol boosted with OVA at 1 week and measured after week 3, 4, 5 and 6. The conditions noted are these: in vivo, 1008 h, time 6 weeks.
Series [9] can be described thus: Toxicity in ovalbumin immunized C57BL/6 mouse assessed as appearance of inflamed skin at tail base at 40 nmol measured after 1 week post immunization. The conditions noted are these: in vivo, 168 h, time 1 weeks. The format is tissue-based.

In the case of `CCCCCCCCCCCCCCCCCCCOc1ccc(C(=O)OC[C@H]2O[C@H](O[C@H]3O[C@H](COC(=O)c4ccc(OCCCCCCCCCCCCCCCCCC)cc4OCCCCCCCCCCCCCCCCCc4cn(CCCCN(OC)[C@@H]5O[C@H](CO)[C@@H](O)[C@H](O[C@H](C)C(=O)N[C@@H](C)C(=O)N[C@H](CCC(=O)O)C(N)=O)[C@H]5NC(C)=O)nn4)[C@@H](O)[C@H](O)[C@H]3O)[C@H](O)[C@@H](O)[C@@H]2O)c(OCCCCCCCCCCCCCCCCCc2cn(CCCCN(OC)[C@@H]3O[C@H](CO)[C@@H](O)[C@H](O[C@H](C)C(=O)N[C@@H](C)C(=O)N[C@H](CCC(=O)O)C(N)=O)[C@H]3NC(C)=O)nn2)c1`, the result in [1], in series [2], in [3], in series [4], in series [5] and in series [6] was Active. Moreover, the result in [7] was Active. Besides, the Activity result is “Non-Toxic” in series [8] and “Toxic” in series [9].
